# Laboratory results as given in publication PMC8400257, “2-Phenoxy-3-Trichloromethylquinoxalines Are Antiplasmodial Derivatives with Activity against the Apicoplast of Plasmodium falciparum” (Pharmaceuticals, 2021).
# “Also recorded” adds a separate entry of the source.
# How the values were obtained:
# [1] = test system: primary human hepatocytes; assay: Hepatotoxicity by count of DAPI-stained hepatocyte nuclei; type: cell-based; settings: dose range up to 30 µM
# Method: Finally, we studied the hepatotoxicity of (3i). This was carried out by quantification of DAPI-stained hepatocyte nuclei in culture wells. Generally, if a drug is hepatotoxic, it causes death and detachment of hepatocytes leading to less hepatocyte nuclei counts.
# Upon immunostaining of parasites, the study plates were scanned using a CellInsight high-content screening platform equipped with the Studio HCS software (Thermo Fisher Scientific, Waltham, MA, USA). The details of analysis is provided elsewhere. The number of host hepatocyte nuclei per well was counted by the system as a measure of toxicity of 3i towards the liver cells.
# [2] = test system: K1 chloroquine and pyrimethamine-resistant P. falciparum strain; assay: In vitro antiplasmodial evaluation (SYBR Green I); type: cell-based, Plasmodium falciparum
# Method: For all molecules, the selectivity index was calculated as following SI = CC50/EC50.
# It was maintained in continuous culture, as described previously by Trager and Jensen. Cultures were maintained in fresh A+ human erythrocytes at 2.5% hematocrit in complete medium (RPMI 1640 with 25 mM HEPES, 25 mM NaHCO3, 10% of A+ human serum) at 37 °C under reduced O2 atmosphere (gas mixture 10% O2, 5% CO2, and 85% N2). Parasitemia was maintained daily between 1 and 3%. The P. falciparum drug susceptibility test was carried out by comparing quantities of DNA in treated and control cultures of parasite in human erythrocytes according to an SYBR Green I fluorescence-based method using a 96-well fluorescence plate reader. Compounds, previously dissolved in DMSO (final concentration less than 0.5% v/v), were incubated in a total assay volume of 200 μL (RPMI, 2% hematocrit and 0.4% parasitemia) for 72 h in a humidified atmosphere (10% O2 and 5% CO2) at 37 °C, in 96-well flat bottom plates. Duplicate assays were performed for each sample. After incubation, plates were frozen at […] for 24 h. Then, the frozen plates were thawed for 1 h at 37 °C. Fifteen µL of each sample were transferred to 96-well flat bottom non-sterile black plates (Greiner Bio-one, Kremsmünster, Austria), already containing 15 µL of the SYBR Green I lysis buffer (2X SYBR Green I, 20 mM Tris base pH 7.5, 20 mM EDTA, 0.008% w/v saponin, 0.08% w/v Triton X-100). […] Plates were incubated for 15 min at 37 °C and then read on a TECAN Infinite F-200 spectrophotometer with excitation and emission wavelengths at 485 and 535 nm, respectively.
# [3] = test system: P. falciparum (NF135 strain) hepatic exoerythrocytic forms; assay: Liver stage development in infected primary human hepatocytes; type: cell-based, Plasmodium falciparum
# Method: The effect of (3i) on the hepatic stage of P. falciparum was next studied in order to know if (3i) was active against another stage of P. falciparum cycle. Cryopreserved primary human hepatocytes were infected with 30,000 freshly extracted P. falciparum sporozoites and simultaneously treated with a dose range (0.9–30 µM) of (3i). Atovaquone (ATQ) was used as a positive parasite-killing control at 25 nM.
# P. falciparum (NF135 strain) sporozoites were isolated by dissection of the salivary glands of infected A. stephensi 14–21 days after an infective blood meal (Department of medical microbiology, University Medical Centre, St Radboud, Nijmegen Netherland). All infected salivary glands were removed by hand dissection, crushed in a potter for sporozoites isolation, and filtrated through a 40 μm filter to remove mosquito debris (Cell Strainer, BD BioSciences, Franklin Lakes, NJ, USA). The sporozoites were counted using a disposable Glasstic microscope slide (KOVA, Garden Grove, CA, USA).
# One day before hepatocyte thawing, 96-well plates were coated by a Corning®® collagen solution (50 µg/mL rat tail type I collagen in 0.02N acid acetic) over night at room temperature. The next day, the wells were washed twice by PBS solution. Cryopreserved primary human hepatocytes (LONZA, Basel, Swiss) were seeded in 96-well plates with a pre-determined seeding dose that gave a single dense layer of attached hepatocytes. Four days post-seeding, each plate well was infected with 30,000 freshly extracted Plasmodium falciparum sporozoites. […]
# Hepatocyte cultures were fixed with 4% paraformaldehyde solution (PFA, Invitrogen) for 10 min. […] Images were analyzed and prepared with ImageJ software. Apicoplast morphology was observed and quantified by eye under a confocal microscope.
# Upon immunostaining of parasites, the study plates were scanned using a CellInsight high-content screening platform equipped with the Studio HCS software (Thermo Fisher Scientific, Waltham, MA, USA). […] The number of host hepatocyte nuclei per well was counted by the system as a measure of toxicity of 3i towards the liver cells. […]
compound,measurement,setting,value
"O=[N+]([O-])c1ccc(Oc2nc3ccccc3nc2C(Cl)(Cl)Cl)cc1 [3i, 2-(4-Nitrophenoxy)-3-trichloromethylquinoxaline]",Cytotoxicity on human hepatocytes (hepatocyte nuclei counts),[1],no cytotoxicity on human hepatocytes; also recorded: no cytotoxicity was observed
same,EC50,"[2]; Plasmodium falciparum, K1, 72 h, K1 strain, 72 h incubation, three independent experiments, read-out: EC50 PfK1 (µM) ± SD",0.2 ± 0.04 µM
same,SI (selectivity index),[2]; SI = CC50 HepG2/EC50 PfK1,160.0
same,Effect on exoerythrocytic forms (EEF or schizont) size and numbers,"[3]; 3i 0.9-30 µM, ATQ 25 nM, 6 or 12 days post-infection",not observe a significant effect on parasite growth; also recorded: no effect
same,Effect on the apicoplast in the hepatic stage,"[3]; up to 30 µM, day 6 post-infection",quite not affected
